These are literature values, as cited in patent publication US20210329918A1, “AQUEOUS COMPOSITIONS OF TOPRAMEZONE” (BASF SE, priority 2018, published 2021).

The conditions of the data set: 25° C.

Regarding `Cc1c(C(=O)c2cnn(C)c2O)ccc(S(C)(=O)=O)c1C1=NOCC1` [topramezone, 4-[3-(4,5-dihydro-1,2-oxazol-3-yl)-2-methyl-4-methylsulfonylbenzoyl]-2-methyl-1H-pyrazol-3-one], the “solubility of topramezone in water” value was “about 0.305 g/L”.
